We go through 28 compounds from US11420961B2, “Heterocyclic compounds” (Hoffmann-La Roche Inc., priority 2017, dated 2022).

One assay addresses T1, MAGL (Homo sapiens, UniProt Q99685).
T1 sequence (Q99685 1-303): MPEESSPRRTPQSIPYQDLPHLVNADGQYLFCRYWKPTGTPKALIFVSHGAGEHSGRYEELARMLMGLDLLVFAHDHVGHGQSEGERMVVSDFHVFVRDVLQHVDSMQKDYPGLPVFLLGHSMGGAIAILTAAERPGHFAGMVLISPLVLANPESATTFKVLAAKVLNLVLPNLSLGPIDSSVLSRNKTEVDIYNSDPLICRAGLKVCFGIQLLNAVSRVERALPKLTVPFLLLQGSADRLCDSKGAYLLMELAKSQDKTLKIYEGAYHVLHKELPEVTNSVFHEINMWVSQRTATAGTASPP
Description: 2-AG assay: MAGL inhibitory activity by hydrolysis of 2-arachidonoylglycerol to arachidonic acid, mass spectrometry. In kind it is biochemical. As to conditions: 2-AG assay (values marked [a]). Here is the method:
Alternatively, compounds were profiled for MAGL inhibitory activity by determining the enzymatic activity by following the hydrolysis of the natural substrate, 2-arachidonoylglycerol, resulting in arachidonic acid, which can be followed by mass spectrometry. This assay is hereinafter abbreviated “2-AG assay”.
The 2-AG assay was carried out in 384 well assay plates (PP, Greiner Cat #784201) in a total volume of 20 μL. Compound dilutions were made in 100% DMSO (VWR Chemicals 23500.297) in a polypropylene plate in 3-fold dilution steps to give a final concentration range in the assay from 12.5 μM to […]. 0.25 μL compound dilutions (100% DMSO) were added to 9 μL MAGL in assay buffer (50 mM TRIS (GIBCO, 15567-027), 1 mM EDTA (Fluka, 03690-100 ml), 0.01% (v/v) Tween. After shaking, the plate was incubated for 15 min at RT. To start the reaction, 10 μL 2-arachidonoylglycerol in assay buffer was added. The final concentrations in the assay was […] and 8 μM 2-arachidonoylglyerol. After shaking and 30 min incubation at RT, the reaction was quenched by the addition of 40 μL of acetonitrile containing 4 μM of d8-arachidonic acid. The amount of arachidonic acid was traced by an online SPE system (Agilent Rapidfire) coupled to a triple quadrupole mass spectrometer (Agilent 6460). A C18 SPE cartridge (G9205A) was used in an acetonitrile/water liquid setup. The mass spectrometer was operated in negative electrospray mode following the mass transitions 303.1→259.1 for arachidonic acid and 311.1→267.0 for d8-arachidonic acid. The activity of the compounds was calculated based on the ratio of intensities [arachidonic acid/d8-arachidonic acid].

Assay [1] has as its target T2, MAGL (recombinant wild-type) (Homo sapiens, UniProt Q99685).
T2 sequence (Q99685 1-303): T1 sequence (Q99685 1-303)
In words: 4-NPA assay: MAGL inhibitory activity by hydrolysis of 4-nitrophenylacetate, absorbance at 405 nm. The format is biochemical. As to conditions: 4-NPA assay (values without footnote [a]). In a few lines: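 Compound (final 25 μM to 1.7 nM, 3-fold steps) was preincubated 15 min at RT with 1 nM MAGL in 50 mM Tris, 1 mM EDTA, then 300 μM 4-nitrophenylacetate was added. A405 was read after 5 min and again 80 min later at RT, and activity was taken as the difference between the two reads.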

Structures are written as SMILES. pIC50: −log10 of the molar value.

What is called pIC50 is the negative decadic logarithm of the IC50, by convention in mol/L. On MAGL, `CS(=O)(=O)c1ccc(C(c2ccccc2)C2CCN(C(=O)c3ccc4c(c3)NC(=O)CO4)CC2)cc1` (single isomer, unassigned) [Example 132, 6-[4-[(S or R)-(4-Methylsulfonylphenyl)-phenyl-methyl]piperidine-1-carbonyl]-4H-1,4-benzoxazin-3-one] showed a pIC50 of 9.57.

On MAGL, `CS(=O)(=O)c1ccc(C(c2ccccc2)C2CCN(C(=O)c3ccc4c(c3)NC(=O)CO4)CC2)cc1` (single isomer, unassigned) [Example 133, 6-[4-[(R or S)-(4-Methylsulfonylphenyl)-phenyl-methyl]piperidine-1-carbonyl]-4H-1,4-benzoxazin-3-one] showed a pIC50 of 7.60. At MAGL, `COc1ccc(C(c2ccccc2)C2CCN(C(=O)c3ccc4c(c3)NC(=O)CO4)CC2)cc1OCCF` (single isomer, unassigned) [Example 134, 6-[4-[(S or R)-3-(2-Fluoroethoxy)-4-methoxy-phenyl-phenyl-methyl]piperidine-1-carbonyl]-4H-1,4-benzoxazin-3-one] showed a pIC50 of 9.96. Compound `COc1ccc(C(c2ccccc2)C2CCN(C(=O)c3ccc4c(c3)NC(=O)CO4)CC2)cc1OCCF` (single isomer, unassigned) [Example 135, 6-[4-[(R or S)-[3-(2-Fluoroethoxy)-4-methoxy-phenyl]-phenyl-methyl]piperidine-1-carbonyl]-4H-1,4-benzoxazin-3-one] showed a pIC50 on MAGL of 8.38. As for `O=C1COc2ccc(C(=O)N3CCC([C@H](c4ccccc4)c4cccc(F)c4)CC3)cc2N1` [Example 75, 6-[4-[(R)-(3-fluorophenyl)-phenyl-methyl]piperidine-1-carbonyl]-4H-1,4-benzoxazin-3-one], the negative logarithm of the IC50 (pIC50) in assay [1] was 9.37. Turning to `O=C1COc2ccc(C(=O)N3CCC([C@H](c4ccc(F)cc4)c4cccc(OCCF)c4)CC3)cc2N1` [Example 76, 6-[4-[(R)-[3-(2-fluoroethoxy)phenyl]-(4-fluorophenyl)methyl]piperidine-1-carbonyl]-4H-1,4-benzoxazin-3-one], the pIC50 in assay [1] is 9.28. Still for that read-out and setting: with `O=C1COc2ccc(C(=O)N3CCC([C@@H](c4ccc(F)cc4)c4cccc(OCCF)c4)CC3)cc2N1` [Example 77, 6-[4-[(S)-[3-(2-fluoroethoxy)phenyl]-(4-fluorophenyl)methyl]piperidine-1-carbonyl]-4H-1,4-benzoxazin-3-one] the figure was 8.78; with `O=C1COc2ccc(C(=O)N3CCC(C(c4ccccc4)c4cccnc4F)CC3)cc2N1` (stereo not shown) [Example 78, 6-[4-[(2-fluoro-3-pyridyl)-phenyl-methyl]piperidine-1-carbonyl]-4H-1,4-benzoxazin-3-one], 8.74. Still for that read-out and setting: with `O=C1COc2ccc(C(=O)N3CCC([C@H](c4ccccc4)c4ccc(OCCF)cc4)CC3)cc2N1` [Example 79, 6-[4-[(R)-[4-(2-fluoroethoxy)phenyl]-phenyl-methyl]piperidine-1-carbonyl]-4H-1,4-benzoxazin-3-one] the figure was 8.22; with `O=C1COc2ccc(C(=O)N3CCC([C@@H](c4ccccc4)c4ccc(OCCF)cc4)CC3)cc2N1` [Example 80, 6-[4-[(S)-[4-(2-fluoroethoxy)phenyl]-phenyl-methyl]piperidine-1-carbonyl]-4H-1,4-benzoxazin-3-one], 9.52; with `O=C1COc2ccc(C(=O)N3CCC([C@@H](c4ccccc4)c4cccc(OCCF)c4)CC3)cc2N1` [Example 81, 6-[4-[(S)-[3-(2-fluoroethoxy)phenyl]-phenyl-methyl]piperidine-1-carbonyl]-4H-1,4-benzoxazin-3-one], 8.96. Still for that read-out and setting: with `O=C1COc2ccc(C(=O)N3CCC(C(c4ccccc4)c4cccc(F)c4)CC3)cc2N1` (stereo not shown) [Example 82, 6-[4-[(3-fluorophenyl)-phenyl-methyl]piperidine-1-carbonyl]-4H-1,4-benzoxazin-3-one] the figure was 9.16. Regarding `O=C1COc2ccc(C(=O)N3CCN(C(c4ccccc4)c4ccccc4)CC3)cc2N1` [Example 83, 6-(4-benzhydrylpiperazine-1-carbonyl)-4H-1,4-benzoxazin-3-one], the pIC50 in assay [1] was 8.51. In the case of `O=C1COc2ccc(C(=O)N3CCN(C(c4ccc(F)cc4)c4ccc(F)cc4)CC3)cc2N1` [Example 84, 6-[4-[bis(4-fluorophenyl)methyl]piperazine-1-carbonyl]-4H-1,4-benzoxazin-3-one], the pIC50 in assay [1] is 8.23.

As for `O=C1COc2ccc(C(=O)N3CCN(c4ccc(Cl)c(C(F)(F)F)c4)CC3)cc2N1` [Example 85, 6-[4-[4-chloro-3-(trifluoromethyl)phenyl]piperazine-1-carbonyl]-4H-1,4-benzoxazin-3-one], the pIC50 in assay [1] was 6.30. For `O=C1COc2ccc(C(=O)N3CCN(c4ccc(Cl)c(Cl)c4)CC3)cc2N1` [Example 86, 6-[4-(3,4-dichlorophenyl)piperazine-1-carbonyl]-4H-1,4-benzoxazin-3-one], in assay [1], the negative-log IC50 (pIC50) was 6.21. In the case of `O=C1COc2ccc(C(=O)N3CCN(c4cc(Cl)cc(Cl)c4)CC3)cc2N1` [Example 87, 6-[4-(3,5-dichlorophenyl)piperazine-1-carbonyl]-4H-1,4-benzoxazin-3-one], in assay [1], the pIC50 was 5.88. Same read-out and setting: with `O=C1COc2ccc(C(=O)N3CCN(c4cc(C(F)(F)F)ccn4)CC3)cc2N1` [Example 88, 6-[4-[4-(trifluoromethyl)-2-pyridyl]piperazine-1-carbonyl]-4H-1,4-benzoxazin-3-one] the figure was 5.83; with `COc1cc(OC)cc(N2CCN(C(=O)c3ccc4c(c3)NC(=O)CO4)CC2)c1` [Example 89, 6-[4-(3,5-dimethoxyphenyl)piperazine-1-carbonyl]-4H-1,4-benzoxazin-3-one], 5.72. In the case of `O=C1COc2ccc(C(=O)N3CCN(c4ccc(C(F)(F)F)cn4)CC3)cc2N1` [Example 90, 6-[4-[5-(trifluoromethyl)-2-pyridyl]piperazine-1-carbonyl]-4H-1,4-benzoxazin-3-one], the negative logarithm of the IC50 (pIC50) in assay [1] was 5.65. In the case of `O=C1COc2ccc(C(=O)N3CCN(c4nsc5ccccc45)CC3)cc2N1` [Example 91, 6-[4-(1,2-benzothiazol-3-yl)piperazine-1-carbonyl]-4H-1,4-benzoxazin-3-one], the pIC50 in assay [1] is 5.62. Regarding `COc1cc(N2CCN(C(=O)c3ccc4c(c3)NC(=O)CO4)CC2)cc(OC)c1OC` [Example 92, 6-[4-(3,4,5-trimethoxyphenyl)piperazine-1-carbonyl]-4H-1,4-benzoxazin-3-one], the pIC50 in assay [1] was 5.56. With `O=C1COc2ccc(C(=O)N3CCC(=C(c4ccc(F)cc4)c4ccc(OCCF)cc4)CC3)cc2N1` [Example 93, 6-[4-[[4-(2-Fluoroethoxy)phenyl]-(4-fluorophenyl)methylene]piperidine-1-carbonyl]-4H-1,4-benzoxazin-3-one], in assay [1], the pIC50 was 8.46. Regarding `COc1cc(C(=O)N2CCC(C(c3ccc(F)cc3)c3ccc(F)cc3)CC2)cc2c1CCC(=O)N2` [Example 100, 7-[4-[Bis(4-fluorophenyl)methyl]piperidine-1-carbonyl]-5-methoxy-3,4-dihydro-1H-quinolin-2-one], the pIC50 in assay [1] was 8.19.

Regarding `COc1cc(C(=O)N2CCC(C(c3ccccc3)c3ccccc3)CC2)cc2c1CCC(=O)N2` [Example 101, 7-(4-Benzhydrylpiperidine-1-carbonyl)-5-methoxy-3,4-dihydro-1H-quinolin-2-one], the pIC50 in assay [1] is 8.57. For `O=C1CCc2c(cc(C(=O)N3CCC(C(c4ccc(F)cc4)c4ccc(F)cc4)CC3)cc2OCCF)N1` [Example 106, 7-[4-[Bis(4-fluorophenyl)methyl]piperidine-1-carbonyl]-5-(2-fluoroethoxy)-3,4-dihydro-1H-quinolin-2-one], in assay [1], the pIC50 was 8.10. On to `O=C1CCc2c(cc(C(=O)N3CCC(C(c4ccccc4)c4ccccc4)CC3)cc2OCCF)N1` [Example 109, 7-(4-Benzhydrylpiperidine-1-carbonyl)-5-(2-fluoroethoxy)-3,4-dihydro-1H-quinolin-2-one], for which the negative logarithm of the IC50 (pIC50) in assay [1] is 8.21. For `COc1ccc(C(c2ccccc2)C2CN(C(=O)c3ccc4c(c3)NC(=O)CO4)C2)cc1OC` (stereo not shown) [Example 127, 6-[3-[(3,4-Dimethoxyphenyl)-phenyl-methyl]azetidine-1-carbonyl]-4H-1,4-benzoxazin-3-one], the negative logarithm of the IC50 (pIC50) in assay [1] was 6.10.
